Publication PMC12275138, “Identification of glycosylated flavonoids as new physiological ligands of the hazel allergen Cor a 1: Complex structures reveal different binding orientation and specificity of mono- and disaccharide derivatives” (Food Chemistry: X, 2025)

Tests used:
Cor a 1.0101 = target: T1, Cor a 1.0101 (Corylus avellana, UniProt Q08407); assay: 1H, […] HSQC screening; format: binding; settings: 60 µM protein, at least 5-fold ligand excess, pH 7.5
T1 construct: recombinant from E. coli, 15N labelled
T1 sequence (Q08407 2-160): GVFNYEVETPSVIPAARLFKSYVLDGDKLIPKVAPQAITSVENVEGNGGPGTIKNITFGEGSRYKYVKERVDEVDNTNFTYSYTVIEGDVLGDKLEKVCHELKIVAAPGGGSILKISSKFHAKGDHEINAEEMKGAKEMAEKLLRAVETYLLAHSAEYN

Cor a 1.0302 = target: T2, Cor a 1.0302 (Corylus avellana, UniProt A0AA49EHN2); assay: 1H, […] HSQC screening; format: binding; settings: 60 µM protein, at least 5-fold ligand excess, pH 7.5
T2 construct: recombinant from E. coli, 15N labelled
T2 sequence (A0AA49EHN2 1-159): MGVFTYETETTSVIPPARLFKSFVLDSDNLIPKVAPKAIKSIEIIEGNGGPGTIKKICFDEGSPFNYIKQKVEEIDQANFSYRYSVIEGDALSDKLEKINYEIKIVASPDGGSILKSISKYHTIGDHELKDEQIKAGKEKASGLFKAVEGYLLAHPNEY

| SMILES | 1H,15N HSQC screening (Cor a 1.0101) | 1H,15N HSQC screening (Cor a 1.0302) |
| --- | --- | --- |
| C[C@@H]1O[C@@H](Oc2c(-c3ccc(O)cc3)oc3cc(O)cc(O)c3c2=O)[C@H](O)[C@H](O)[C@H]1O [K3OR] | All the other isoallergens bound to Q3OGlc, Q3OGal, and K3OR. |  |
| O=c1c(O[C@@H]2O[C@H](CO)[C@@H](O)[C@H](O)[C@H]2O)c(-c2ccc(O)c(O)c2)oc2cc(O)cc(O)c12 [Q3OGlc] | All the other isoallergens bound to Q3OGlc, Q3OGal, and K3OR. | All the other isoallergens bound to Q3OGlc, Q3OGal, and K3OR. |
